Measurements as given in ChEMBL document CHEMBL1795342, “Discovery of S1P agonists with a dihydronaphthalene scaffold” (Bioorg Med Chem Lett, 2011).

How the values were obtained:
[1] = target: Sphingosine 1-phosphate receptor 1 (Homo sapiens, UniProt P21453); assay: Agonist activity at human S1P1 receptor expressed in CHO cells assessed as intracellular calcium levels; format: functional, cell-based
[2] = target: Sphingosine 1-phosphate receptor 3 (Homo sapiens, UniProt Q99500); assay: Agonist activity at human S1P3 receptor expressed in CHO cells assessed as intracellular calcium levels; format: functional, cell-based
[3] = system: Mus musculus; assay: Immunomodulatory activity in po dosed mouse assessed as reduction in peripheral lymphocyte count measured at 4 hrs; format: functional
[4] = Cmax in rat at 1 mg/kg, po; format: ADME, organism-based; set-up: dose 1 mg/kg, route oral; details: in vivo
[5] = Bioavailability in rat at 1 mg/kg, iv; format: ADME, organism-based; details: in vivo
[6] = Total clearance in rat at 1 mg/kg, iv; format: ADME, organism-based; set-up: dose 1 mg/kg, route intravenous; details: in vivo
[7] = Half life in rat at 1 mg/kg, iv; format: ADME, organism-based; set-up: dose 1 mg/kg, route intravenous; details: in vivo
[8] = AUC (infinity) in rat at 1 mg/kg, iv; format: ADME, organism-based; set-up: time infinity, dose 1 mg/kg, route intravenous; details: plasma
[9] = Half life in rat at 1 mg/kg, po; format: ADME, organism-based; set-up: dose 1 mg/kg, route oral; details: in vivo
[10] = Volume of distribution at steady state in rat at 1 mg/kg, iv; format: ADME, organism-based; set-up: dose 1 mg/kg, route intravenous; details: in vivo, read-out: Vdss
[11] = AUC (infinity) in rat at 1 mg/kg, po; format: ADME, organism-based; set-up: time infinity, dose 1 mg/kg, route oral; details: plasma

Sequence of Sphingosine 1-phosphate receptor 3 (Q99500 whole entry): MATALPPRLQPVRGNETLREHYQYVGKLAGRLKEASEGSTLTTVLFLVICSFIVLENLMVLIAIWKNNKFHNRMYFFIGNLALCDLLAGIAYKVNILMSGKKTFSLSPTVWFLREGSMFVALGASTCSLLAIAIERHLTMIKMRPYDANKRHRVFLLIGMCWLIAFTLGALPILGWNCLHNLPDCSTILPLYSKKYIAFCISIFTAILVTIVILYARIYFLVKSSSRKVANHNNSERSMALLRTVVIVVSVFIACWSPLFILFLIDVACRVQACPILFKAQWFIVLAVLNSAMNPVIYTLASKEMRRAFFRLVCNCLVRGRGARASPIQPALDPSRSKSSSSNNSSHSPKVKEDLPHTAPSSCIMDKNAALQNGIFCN
Sequence of Sphingosine 1-phosphate receptor 1 (P21453 whole entry): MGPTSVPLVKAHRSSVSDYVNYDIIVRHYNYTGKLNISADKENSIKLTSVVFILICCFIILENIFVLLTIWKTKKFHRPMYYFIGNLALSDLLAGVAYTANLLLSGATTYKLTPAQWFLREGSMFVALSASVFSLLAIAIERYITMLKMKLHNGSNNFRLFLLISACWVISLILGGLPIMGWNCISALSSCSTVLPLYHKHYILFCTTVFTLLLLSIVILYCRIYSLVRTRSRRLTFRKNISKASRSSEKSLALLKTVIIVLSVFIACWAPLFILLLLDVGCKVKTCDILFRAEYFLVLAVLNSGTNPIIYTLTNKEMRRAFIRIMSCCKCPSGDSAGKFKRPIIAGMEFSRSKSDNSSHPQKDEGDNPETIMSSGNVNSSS

EC50 [1] [nM]	EC50 [2] [nM]	SMILES	other results
150	6700	O=C(O)CCNC/C=C/c1ccc(OCCCCCc2ccccc2)cc1	–
24	7200	O=C(O)CCNC/C=C/c1ccc(OCCCCc2ccccc2)cc1Cl	–
280	> 10000	Cc1cc(/C=C/CNCCC(=O)O)ccc1OCCCCc1ccccc1	–
230	> 10000	COc1cc(OCCCCc2ccccc2)ccc1/C=C/CNCCC(=O)O	–
120	> 10000	O=C(O)CCNC/C=C/c1ccc(OCCCCc2ccccc2)cc1	–
36	> 10000	Cc1cc(OCCCCc2ccccc2)ccc1/C=C/CNCCC(=O)O	–
57	7800	O=C(O)CCNCC1=Cc2ccc(OCCCCc3ccccc3)cc2CC1	–
–	–	O=C(O)CCNC/C=C/c1ccc(OCCCc2ccccc2)cc1	ED50 [3]: 4.6 mg/kg
43	3300	O=C(O)C1CN(C/C=C/c2ccc(OCCCc3ccccc3)cc2)C1	–
10	3000	C/C(=C\c1ccc(OCCCCc2ccccc2)cc1)CNCCC(=O)O	–
2.9	> 10000	CC1=C(CN2CC(C(=O)O)C2)CCc2cc(OCCCCc3ccccc3)ccc21	ED50 [3]: 0.16 mg/kg; Cmax [4]: 181 ng/mL; bioavailability [5]: 85%; clearance [6]: 4 mL/min/kg; half-life [7]: 11 h; AUC(0-inf) [8]: 4400 ng·h/mL; half-life [9]: 16.7 h; Vd [10]: 2.86 L/kg; AUC(0-inf) [11]: 3800 ng·h/mL
11	> 10000	CC1=C(CNCCC(=O)O)CCc2cc(OCCCCc3ccccc3)ccc21	ED50 [3]: 0.34 mg/kg; Cmax [4]: 168 ng/mL; bioavailability [5]: 44%; clearance [6]: 3.1 mL/min/kg; half-life [7]: 5.2 h; AUC(0-inf) [8]: 5400 ng·h/mL; half-life [9]: 6.9 h; Vd [10]: 0.86 L/kg; AUC(0-inf) [11]: 2400 ng·h/mL
1300	> 10000	CC1=C(CN2CC(C(=O)O)C2)CCCc2cc(OCCCCc3ccccc3)ccc21	–
2400	> 10000	O=C(O)C1CCN(C/C=C/c2ccc(OCCCc3ccccc3)cc2)CC1	–
